Test results: patent publication US9168259B2 (GRÜNENTHAL GMBH, priority 2010, dated 2015)
Like-named read-outs stand apart in the source and are kept apart here.

Target: T1, KCNQ2/3 channels (Homo sapiens, UniProt O43525+O43526)
T1 construct: expressed in transfected cells
Assay: Fluorescence assay using a voltage sensitive dye (fluorimetry)
Assay type: cell-based

[1] = CHO-K1, plateau effect relative to saturated retigabine (50 μM) = 100%, CHO-K1 cells expressing KCNQ2/3, negative values = antagonistic, read-out: Fluorimetry % efficacy (retigabine = 100%)
[2] = CHO-K1 cells expressing KCNQ2/3, IC50 where % efficacy is negative, read-out: Fluorimetry EC50/IC50

T1 sequence (O43526 whole entry): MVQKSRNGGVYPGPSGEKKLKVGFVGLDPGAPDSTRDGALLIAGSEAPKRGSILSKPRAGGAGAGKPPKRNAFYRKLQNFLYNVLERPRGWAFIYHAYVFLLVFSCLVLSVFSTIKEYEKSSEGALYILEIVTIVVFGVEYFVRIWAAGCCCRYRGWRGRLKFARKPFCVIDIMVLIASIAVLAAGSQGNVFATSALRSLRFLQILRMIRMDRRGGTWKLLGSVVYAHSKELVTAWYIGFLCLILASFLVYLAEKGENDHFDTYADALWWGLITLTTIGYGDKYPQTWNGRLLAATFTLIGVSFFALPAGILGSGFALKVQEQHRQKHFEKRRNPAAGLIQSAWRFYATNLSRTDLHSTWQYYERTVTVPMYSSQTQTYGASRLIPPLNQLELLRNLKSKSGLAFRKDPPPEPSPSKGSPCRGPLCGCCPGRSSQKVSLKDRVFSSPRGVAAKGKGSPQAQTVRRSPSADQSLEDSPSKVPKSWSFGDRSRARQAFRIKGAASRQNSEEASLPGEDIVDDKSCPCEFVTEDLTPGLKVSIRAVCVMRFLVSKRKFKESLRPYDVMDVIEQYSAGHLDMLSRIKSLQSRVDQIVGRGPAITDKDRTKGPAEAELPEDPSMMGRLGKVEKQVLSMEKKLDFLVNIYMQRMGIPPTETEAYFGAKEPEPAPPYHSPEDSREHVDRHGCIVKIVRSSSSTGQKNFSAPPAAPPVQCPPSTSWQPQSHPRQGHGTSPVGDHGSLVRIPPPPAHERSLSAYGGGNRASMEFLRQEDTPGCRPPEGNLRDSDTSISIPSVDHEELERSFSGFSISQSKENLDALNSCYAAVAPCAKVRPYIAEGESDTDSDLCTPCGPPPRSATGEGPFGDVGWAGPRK
T1 sequence (O43525 whole entry): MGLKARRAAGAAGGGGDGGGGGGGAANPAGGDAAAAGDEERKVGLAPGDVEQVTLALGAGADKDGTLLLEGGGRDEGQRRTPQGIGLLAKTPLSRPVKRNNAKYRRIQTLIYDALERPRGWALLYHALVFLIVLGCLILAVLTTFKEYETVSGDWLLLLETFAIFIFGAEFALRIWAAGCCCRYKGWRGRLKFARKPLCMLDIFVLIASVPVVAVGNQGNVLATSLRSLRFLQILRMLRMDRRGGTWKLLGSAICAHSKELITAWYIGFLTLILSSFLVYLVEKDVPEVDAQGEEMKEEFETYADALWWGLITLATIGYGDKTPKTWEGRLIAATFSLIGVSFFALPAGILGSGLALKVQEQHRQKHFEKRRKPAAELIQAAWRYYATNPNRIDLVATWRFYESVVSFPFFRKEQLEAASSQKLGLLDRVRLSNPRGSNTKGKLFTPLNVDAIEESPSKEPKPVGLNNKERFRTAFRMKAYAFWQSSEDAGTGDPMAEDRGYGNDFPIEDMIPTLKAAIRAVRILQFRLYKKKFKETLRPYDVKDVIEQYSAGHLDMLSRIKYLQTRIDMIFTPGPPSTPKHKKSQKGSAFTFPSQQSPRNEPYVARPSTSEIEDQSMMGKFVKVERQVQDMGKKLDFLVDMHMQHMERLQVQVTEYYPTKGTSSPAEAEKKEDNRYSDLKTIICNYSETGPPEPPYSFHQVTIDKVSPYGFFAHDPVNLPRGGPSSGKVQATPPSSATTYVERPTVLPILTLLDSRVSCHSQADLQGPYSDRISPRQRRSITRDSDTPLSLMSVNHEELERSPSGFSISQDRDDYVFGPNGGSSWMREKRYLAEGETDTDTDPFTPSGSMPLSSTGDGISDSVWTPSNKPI

Structure (SMILES)	Emax [1]	EC50 [2]	EC50	Emax (CHO-K1, read-out: Fluorimetry % efficacy (retigabine = 100%))
CCCc1nc(N2CCOC[C@H]2C)cc(C)c1C(=O)NCc1ccc(Cl)cc1 [Example 266, N-[(4-Chlorophenyl)-methyl]-4-methyl-6-[(3R)-3-methyl-morpholin-4-yl]-2-propyl-pyridine-3-carboxylic acid amide]	210%	57 nM		
CCSc1nc(N2CCOCC2)cc(C)c1C(=O)NCCC(O)c1ccccc1 (stereo not drawn) [Example 227, 2-Ethylsulfanyl-N-(3-hydroxy-3-phenyl-propyl)-4-methyl-6-morpholin-4-yl-pyridine-3-carboxylic acid amide]	165%	4190 nM		
COc1nc(N2CCOC[C@H]2C)cc(C)c1C(=O)NCCCC(C)(C)C [Example 186, N-(4,4-Dimethyl-pentyl)-2-methoxy-4-methyl-6-[(3R)-3-methyl-morpholin-4-yl]-pyridine-3-carboxylic acid amide]	240%	63 nM		
CCSc1nc(N2CCOCC2)cc(C)c1C(=O)NCCCCC(C)(C)C [Example 116, N-(5,5-Dimethyl-hexyl)-2-ethylsulfanyl-4-methyl-6-morpholin-4-yl-pyridine-3-carboxylic acid amide]	210%	131 nM		
CCSc1nc(N2CCOCC2)cc(C)c1C(=O)NCc1ccc(F)cc1F [Example 107, N-[(2,4-Difluoro-phenyl)-methyl]-2-ethylsulfanyl-4-methyl-6-morpholin-4-yl-pyridine-3-carboxylic acid amide]	90%	88 nM		
CCSc1nc(N(C)CC2CCOCC2)cc(C)c1C(=O)NCc1cccc(F)c1 [Example 61, 2-Ethylsulfanyl-N-[(3-fluorophenyl)-methyl]-4-methyl-6-[methyl-(tetrahydro-pyran-4-yl-methyl)-amino]-pyridine-3-carboxylic acid amide]	110%	528 nM		
CCSc1nc(N2CCOCC2)cc(C)c1C(=O)NCc1ccc(C#N)cc1 [Example 145, N-[(4-Cyano-phenyl)-methyl]-2-ethylsulfanyl-4-methyl-6-morpholin-4-yl-pyridine-3-carboxylic acid amide]	145%	673 nM		
COc1nc(N2CCOC[C@H]2C)cc(C)c1C(=O)NCc1cc(F)cc(F)c1 [Example 234, N-[(3,5-Difluoro-phenyl)-methyl]-2-methoxy-4-methyl-6-[(3R)-3-methyl-morpholin-4-yl]-pyridine-3-carboxylic acid amide]	195%	124 nM		
CCN(C)c1nc(N2CCOCC2)cc(C)c1C(=O)NCc1ccc(F)cc1 [Example 174, 2-(Ethyl-methyl-amino)-N-[(4-fluorophenyl)-methyl]-4-methyl-6-morpholin-4-yl-pyridine-3-carboxylic acid amide]	221%	422 nM		
CCSc1nc(N2CC3CC2CO3)cc(C)c1C(=O)NCc1cccc(F)c1 (stereo not drawn) [Example 159, 2-Ethylsulfanyl-N-[(3-fluorophenyl)-methyl]-4-methyl-6-(3-oxa-6-azabicyclo[2.2.1]heptan-6-yl)-pyridine-3-carboxylic acid amide]	149%	1260 nM		
Cc1cc(N2CCOC[C@H]2C)nc(C2CC2)c1C(=O)NCc1ccc(F)cc1 [Example 196, 2-Cyclopropyl-N-[(4-fluorophenyl)-methyl]-4-methyl-6-[(3R)-3-methyl-morpholin-4-yl]-pyridine-3-carboxylic acid amide]	197%	103 nM		
Cc1cc(N2CCOCC2)nc(C(C)C)c1C(=O)NCCCC(C)(C)C [Example 314, N-(4,4-Dimethyl-pentyl)-2-isopropyl-4-methyl-6-morpholin-4-yl-pyridine-3-carboxylic acid amide]	242%	18 nM		
CCc1cc(N2CCOCC2)nc(CC)c1C(=O)NCc1ccc(Cl)cc1 [Example 359, N-[(4-Chlorophenyl)-methyl]-2,4-diethyl-6-morpholin-4-yl-pyridine-3-carboxylic acid amide]			237 nM	141%
CCSc1nc(N2CCOCC2)cc(C)c1C(=O)NCC1CCCC1 [Example 43, N-(Cyclopentyl-methyl)-2-ethylsulfanyl-4-methyl-6-morpholin-4-yl-pyridine-3-carboxylic acid amide]	189%	679 nM		
CCSc1nc(N2Cc3ccccc3C2)cc(C)c1C(=O)NCc1cccc(F)c1 [Example 303, 6-(2,3-Dihydro-1H-isoindol-2-yl)-2-ethylsulfanyl-N-[(3-fluorophenyl)-methyl]-4-methyl-pyridine-3-carboxylic acid amide]	54%	1150 nM		
CCSc1nc(N(C)CCOC)cc(C)c1C(=O)NCc1cccc(F)c1 [Example 35, 2-Ethylsulfanyl-N-[(3-fluorophenyl)-methyl]-6-(2-methoxy-ethyl-methyl-amino)-4-methyl-pyridine-3-carboxylic acid amide]	153%	635 nM		

Structure (SMILES)	Emax [1]	EC50 [2]	EC50	Emax (CHO-K1, read-out: Fluorimetry % efficacy (retigabine = 100%))
CCSc1nc(N2CCOCC2)cc(C)c1C(=O)NCc1ccc(F)c(C)c1 [Example 201, 2-Ethylsulfanyl-N-[(4-fluoro-3-methyl-phenyl)-methyl]-4-methyl-6-morpholin-4-yl-pyridine-3-carboxylic acid amide]	127%	135 nM		
CCSc1nc(N2CCOCC2)cc(C)c1C(=O)NCc1ccc(Cl)cc1 [Example 124, N-[(4-Chlorophenyl)-methyl]-2-ethylsulfanyl-4-methyl-6-morpholin-4-yl-pyridine-3-carboxylic acid amide]	149%	82 nM		
CCSc1nc(N2CCOCC2)cc(C)c1C(=O)NCCCc1ccc(F)cc1 [Example 108, 2-Ethylsulfanyl-N-[3-(4-fluorophenyl)-propyl]-4-methyl-6-morpholin-4-yl-pyridine-3-carboxylic acid amide]	203%	317 nM		
CCSc1nc(N2CCOCC2CC)cc(C)c1C(=O)NCc1cccc(F)c1 (stereo not drawn) [Example 178, 6-(3-Ethyl-morpholin-4-yl)-2-ethylsulfanyl-N-[(3-fluorophenyl)-methyl]-4-methyl-pyridine-3-carboxylic acid amide]	147%	54 nM		
CCC(C)(C)c1nc(N2CCOCC2)cc(C)c1C(=O)NCCCC(C)(C)C [Example 279, N-(4,4-Dimethyl-pentyl)-2-(1,1-dimethyl-propyl)-4-methyl-6-morpholin-4-yl-pyridine-3-carboxylic acid amide]	172%	430 nM		
CCSc1nc(N2CCc3nc(C(F)(F)F)ccc3C2)cc(C)c1C(=O)NCc1cccc(F)c1 [Example 232, 2-Ethylsulfanyl-N-[(3-fluorophenyl)-methyl]-4-methyl-6-[2-(trifluoromethyl)-5,6,7,8-tetrahydro-[1,6]naphthyridin-6-yl]-pyridine-3-carboxylic acid amide]	131%	112 nM		
CCCc1nc(N2CCOCC2)cc(C)c1C(=O)NCc1ccc(Cl)cc1 [Example 326, N-[(4-Chlorophenyl)-methyl]-4-methyl-6-morpholin-4-yl-2-propyl-pyridine-3-carboxylic acid amide]	163%	59 nM		
CCSc1nc(N2CCOCC2)c(F)c(C)c1C(=O)NCc1cccc(F)c1 [Example 58, 2-Ethylsulfanyl-5-fluoro-N-[(3-fluorophenyl)-methyl]-4-methyl-6-morpholin-4-yl-pyridine-3-carboxylic acid amide]	173%	2290 nM		
CCSc1nc(N2CCOCC2)cc(C)c1C(=O)NCCC(C)(C)C [Example 104, N-(3,3-Dimethyl-butyl)-2-ethylsulfanyl-4-methyl-6-morpholin-4-yl-pyridine-3-carboxylic acid amide]	100%	1400 nM		
CCSc1nc(N2CCN(C)C(=O)C2)cc(C)c1C(=O)NCc1cccc(F)c1 [Example 150, 2-Ethylsulfanyl-N-[(3-fluorophenyl)-methyl]-4-methyl-6-(4-methyl-3-oxo-piperazin-1-yl)-pyridine-3-carboxylic acid amide]	98%	9650 nM		
CCSc1nc(N2CCOC(C)C2)cc(C)c1C(=O)NCCCC(C)(C)C (stereo not drawn) [Example 219, N-(4,4-Dimethyl-pentyl)-2-ethylsulfanyl-4-methyl-6-(2-methyl-morpholin-4-yl)-pyridine-3-carboxylic acid amide]	212%	91 nM		
CCSc1nc(N2CCO[C@H](C)C2)cc(C)c1C(=O)NCCCC(C)(C)C [Example 275, N-(4,4-Dimethyl-pentyl)-2-ethylsulfanyl-4-methyl-6-[(2R)-2-methyl-morpholin-4-yl]-pyridine-3-carboxylic acid amide]	208%	63 nM		
CCSc1nc(N2CCOCC2)cc(C)c1C(=O)NCCCS(C)(=O)=O [Example 162, 2-Ethylsulfanyl-4-methyl-N-(3-methylsulfonyl-propyl)-6-morpholin-4-yl-pyridine-3-carboxylic acid amide]	21%			
CCSc1nc(N2CCOCC2)cc(C)c1C(=O)NCc1ccccc1-c1ccc(F)cc1 [Example 71, 2-Ethylsulfanyl-N-[[2-(4-fluorophenyl)-phenyl]-methyl]-4-methyl-6-morpholin-4-yl-pyridine-3-carboxylic acid amide]	-102%	275 nM		
CCSc1nc(N(C)CC(C)=O)cc(C)c1C(=O)NCc1cccc(F)c1 [Example 253, 2-Ethylsulfanyl-N-[(3-fluorophenyl)-methyl]-4-methyl-6-[methyl-(2-oxo-propyl)-amino]-pyridine-3-carboxylic acid amide]	79%	5740 nM		
CCSc1nc(N2CCOCC2)cc(C)c1C(=O)NCc1ccc([N+](=O)[O-])cc1 [Example 281, 2-Ethylsulfanyl-4-methyl-6-morpholin-4-yl-N-[(4-nitrophenyl)-methyl]-pyridine-3-carboxylic acid amide]	109%	311 nM		
